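Step 1: Grow cells in 96-well plates. Step 2: Expose to compound for 48 hours at 5 concentrations. Step 3: Interpolate endpoints linearly; if unreached, use highest concentration. At the GI50, growth is halved.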 Activity calls are given as the source filed them. No stated cut-off is given here; in the data, active = GI50 up to about 1.1 µM and inactive = higher.
Assays:
Experiment in all cases: growth of human tumour cells (NCI), 48 h
ACHN = system: ACHN
A498 = system: A498
NCI-H460 = system: NCI-H460
SK-MEL-5 = system: SK-MEL-5
M14 = system: M14
NCI-H23 = system: NCI-H23
A549 = system: A549
UACC-62 = system: UACC-62
MOLT-4 = system: MOLT-4
HOP-62 = system: HOP-62
BT-549 = system: BT-549
SF-539 = system: SF-539
Malme-3M = system: Malme-3M
CCRF-CEM = system: CCRF-CEM
IGROV-1 = system: IGROV-1
KM12 = system: KM12
OVCAR-5 = system: OVCAR-5
SW-620 = system: SW-620
HCT-116 = system: HCT-116
HCT-15 = system: HCT-15

Compound	GI50 (ACHN)	GI50 (A498)	GI50 (NCI-H460)	GI50 (SK-MEL-5)	GI50 (M14)	GI50 (NCI-H23)	GI50 (A549)	GI50 (UACC-62)	GI50 (MOLT-4)	GI50 (HOP-62)	GI50 (BT-549)	GI50 (SF-539)	GI50 (Malme-3M)	GI50 (CCRF-CEM)	GI50 (IGROV-1)	GI50 (KM12)	GI50 (OVCAR-5)	GI50 (SW-620)	GI50 (HCT-116)	GI50 (HCT-15) [µM]
N=C(N)NNC(=O)C(=O)O	> 100 µM (inactive)	> 100 µM (inactive)	> 100 µM (inactive)	> 100 µM (inactive)	> 100 µM (inactive)	> 100 µM (inactive)	> 100 µM (inactive)	> 100 µM (inactive)	> 100 µM (inactive)	> 100 µM (inactive)	> 100 µM (inactive)	> 100 µM (inactive)	> 100 µM (inactive)	> 100 µM (inactive)	> 100 µM (inactive)	> 100 µM (inactive)	> 100 µM (inactive)	> 100 µM (inactive)	> 100 µM (inactive)	> 100
COc1cc(OC)c2c(O)c3c(cc2c1)CC(C)(C)CC3=O	> 100 µM (inactive)	> 100 µM (inactive)	> 100 µM (inactive)	> 100 µM (inactive)	> 100 µM (inactive)	> 100 µM (inactive)	> 100 µM (inactive)	90.6 µM (inactive)	> 76.6 µM (inactive)	97.3 µM (inactive)	> 100 µM (inactive)	> 100 µM (inactive)	48.5 µM (inactive)	> 63.1 µM (inactive)	> 100 µM (inactive)	> 92.3 µM (inactive)	> 100 µM (inactive)	59 µM (inactive)	> 100 µM (inactive)	> 100
Cc1ccc(C(=O)N2CCN(C(=O)c3ccc(C)cc3)c3ccccc32)cc1	9.59 µM (inactive)	5.2 µM (inactive)	4.14 µM (inactive)	3.15 µM (inactive)	4.57 µM (inactive)	4.52 µM (inactive)	7.48 µM (inactive)	2.01 µM (inactive)	3.07 µM (inactive)	6.43 µM (inactive)	> 100 µM (inactive)	2.42 µM (inactive)	2.84 µM (inactive)	1.6 µM (inactive)	4.91 µM (inactive)	3.29 µM (inactive)	> 63.7 µM (inactive)	2.93 µM (inactive)	3.04 µM (inactive)	1.94
CCOC(=O)C(NC(=O)CC)(Nc1ccc(S(=O)(=O)Nc2nc(C)cc(C)n2)cc1)C(F)(F)F (stereo not given)	> 100 µM (inactive)	> 100 µM (inactive)	> 100 µM (inactive)	> 100 µM (inactive)	> 100 µM (inactive)	> 100 µM (inactive)	> 100 µM (inactive)	> 100 µM (inactive)	> 100 µM (inactive)	> 100 µM (inactive)	> 100 µM (inactive)	> 100 µM (inactive)	> 100 µM (inactive)	> 100 µM (inactive)	> 100 µM (inactive)	> 100 µM (inactive)	> 100 µM (inactive)	> 100 µM (inactive)	> 100 µM (inactive)	> 100
CC1=NN(C(=O)CC(=O)Nc2ccccc2)C(=O)C1/N=N/c1ccc(C(=O)O)cc1 (stereo not given)	> 100 µM (inactive)	> 100 µM (inactive)	> 100 µM (inactive)	> 100 µM (inactive)	> 100 µM (inactive)	> 100 µM (inactive)	> 100 µM (inactive)	> 100 µM (inactive)	> 100 µM (inactive)	75.9 µM (inactive)	> 100 µM (inactive)	84.7 µM (inactive)	> 100 µM (inactive)	> 100 µM (inactive)	> 100 µM (inactive)	> 100 µM (inactive)	> 100 µM (inactive)	> 100 µM (inactive)	> 100 µM (inactive)	> 100
[N-]=[N+]=Nc1ccc2c(c1)Sc1ccccc1N2CCCCCl	> 100 µM (inactive)	> 100 µM (inactive)	83.2 µM (inactive)	14.9 µM (inactive)	> 100 µM (inactive)	41.8 µM (inactive)	35.2 µM (inactive)	99.8 µM (inactive)	22 µM (inactive)	> 100 µM (inactive)	41.6 µM (inactive)	> 100 µM (inactive)	37.1 µM (inactive)	36.7 µM (inactive)	> 100 µM (inactive)	53.5 µM (inactive)	> 100 µM (inactive)	88.3 µM (inactive)	30.2 µM (inactive)	81.3
N=c1oc2c(Br)cc(Br)cc2cc1C(=O)Nc1ccccn1	70.5 µM (inactive)	> 100 µM (inactive)	71.9 µM (inactive)	63.1 µM (inactive)	56 µM (inactive)	69.2 µM (inactive)	65.3 µM (inactive)	74.8 µM (inactive)	> 100 µM (inactive)	53 µM (inactive)	> 100 µM (inactive)	31.8 µM (inactive)	52.2 µM (inactive)	41.2 µM (inactive)	> 100 µM (inactive)	56.5 µM (inactive)	> 100 µM (inactive)	> 100 µM (inactive)	38.3 µM (inactive)	38.9
N#CS/C(C(Cl)=C(Cl)Cl)=C(/Cl)[N+](=O)[O-]	1.64 µM (inactive)	17.1 µM (inactive)	13.7 µM (inactive)	2.53 µM (inactive)	1.31 µM (inactive)	2.7 µM (inactive)	21 µM (inactive)	4.26 µM (inactive)	0.6 µM (active)	15.4 µM (inactive)	2.24 µM (inactive)	6.44 µM (inactive)	1.58 µM (inactive)	0.284 µM (active)	2.32 µM (inactive)	9.64 µM (inactive)	1.7 µM (inactive)	1.78 µM (inactive)	1.5 µM (inactive)	2.32
CC(=O)c1c2c(cc3c1CCC3)CCC2	> 100 µM (inactive)	36.5 µM (inactive)	> 100 µM (inactive)	> 100 µM (inactive)	> 100 µM (inactive)	> 100 µM (inactive)	> 100 µM (inactive)	> 100 µM (inactive)	20.6 µM (inactive)	> 100 µM (inactive)	> 100 µM (inactive)	> 100 µM (inactive)	> 100 µM (inactive)	40.7 µM (inactive)	> 100 µM (inactive)	> 100 µM (inactive)	> 100 µM (inactive)	> 100 µM (inactive)	70.3 µM (inactive)	> 100
c1ccc2cc(OCC3CO3)c(OCC3CO3)cc2c1 (stereo not given)	2.18 µM (inactive)	2 µM (inactive)	4.2 µM (inactive)	9.23 µM (inactive)	1.64 µM (inactive)	2.72 µM (inactive)	3.68 µM (inactive)	2.84 µM (inactive)	0.562 µM (active)	1.43 µM (inactive)	1.45 µM (inactive)	2.65 µM (inactive)	7.64 µM (inactive)	0.16 µM (active)	1.3 µM (inactive)	5.7 µM (inactive)	11.4 µM (inactive)	1.91 µM (inactive)	1.3 µM (inactive)	4.63
Nc1nc(Sc2ccc([N+](=O)[O-])cn2)c2nc[nH]c2n1	12.3 µM (inactive)	11.8 µM (inactive)	4.88 µM (inactive)	14.4 µM (inactive)	3.16 µM (inactive)	8.05 µM (inactive)	15.1 µM (inactive)	2.94 µM (inactive)	4.56 µM (inactive)	4.6 µM (inactive)	8.45 µM (inactive)	6.24 µM (inactive)	11.4 µM (inactive)	2.77 µM (inactive)	14.5 µM (inactive)	7.38 µM (inactive)	3.47 µM (inactive)	18.2 µM (inactive)	3.94 µM (inactive)	9.55
CN(C)c1ccc(/C=c2/c3ccccc3n3c2cc(/C=C/c2ccccc2)[n+]3C)cc1	0.255 µM (active)	0.266 µM (active)	0.185 µM (active)	0.144 µM (active)	0.218 µM (active)	0.0783 µM (active)	0.0512 µM (active)	0.281 µM (active)	0.0743 µM (active)	0.0893 µM (active)	0.08 µM (active)	0.038 µM (active)	0.233 µM (active)	0.0206 µM (active)	0.145 µM (active)	0.167 µM (active)	0.502 µM (active)	0.0916 µM (active)	0.0824 µM (active)	0.881
C/C(=N\NC(=S)N(C)C)c1ccccn1	< 0.0122 µM (active)	0.519 µM (active)	< 0.0156 µM (active)	0.178 µM (active)	< 0.01 µM (active)	< 0.01 µM (active)	0.0413 µM (active)	< 0.0124 µM (active)	< 0.01 µM (active)	0.033 µM (active)	0.0111 µM (active)	0.231 µM (active)	0.219 µM (active)	< 0.01 µM (active)	< 0.01 µM (active)	0.0307 µM (active)	0.0373 µM (active)	0.0109 µM (active)	< 0.01 µM (active)	< 0.01
CSc1ccccc1P(CCP(c1ccccc1SC)c1ccccc1SC)c1ccccc1SC	47.2 µM (inactive)	40.4 µM (inactive)	3.13 µM (inactive)	55.5 µM (inactive)	24.3 µM (inactive)	1 µM (active)	3.96 µM (inactive)	> 86.5 µM (inactive)	2.22 µM (inactive)	8.61 µM (inactive)	38.7 µM (inactive)	34.1 µM (inactive)	29.9 µM (inactive)	0.953 µM (active)	0.8 µM (active)	18.6 µM (inactive)	43.9 µM (inactive)	16.7 µM (inactive)	0.413 µM (active)	> 67
